Test results as given in US20120016010A1, “RNA Interference Mediated Inhibition of BTB and CNC Homology 1, Basic Leucine Zipper Transcription Factor 1 (BACH1) Gene Expression Using Short Interfering Nucleic Acid (siNA)” (Merck Sharp & Dohme Corp, priority 2009, published 2012).
[invAb] = inverted abasic unit; d = 2'-deoxy (DNA); m = 2'-O-methyl; r = 2'-OH (RNA); f = 2'-fluoro

How the values were obtained:
Bach1 mRNA [1] = test: Initial screen: Bach1 mRNA knock-down in human A549 cells (96-well transfection, quantitative RT-PCR); assay type: cell-based; details: Bach1 mRNA, 10 nM siNA, human A549 cells, n = 2, mean ± S.D., normalized to GAPDH and non-targeting control, 24 hrs post-transfection
Protocol: (§1) All cells were obtained from ATCC (Manassas, Va.) unless otherwise indicated. Cells were grown and transfected under standard conditions, which are detailed below for each cell line.
(§2) Cells were plated in all wells of a tissue-culture treated, 96-well plate at a final count of 5000 cells/well in 100 μL of the appropriate culture media. The cells were cultured for 24 hours after plating at 37° C. in the presence of 5% CO2.
(§3) After 24 hours, complexes containing siNA and RNAiMax were created as follows: A solution of RNAiMax diluted 33-fold in OPTI-MEM was prepared. […] After incubation of RNAiMax/OPTI-MEM solution at room temperature for 5 min, an equal volume of the siNA solution and the RNAiMax solution were added together for each of the siNAs.
(§4) This solution was incubated at room temperature for 20 minutes. After incubation, 20 uL of the solution was added to each of the relevant wells. The final concentration of siNA in each well was 10 nM and the final volume of RNAiMax in each well was 0.3 ul. […]
(§5) Briefly, a 60 uL (1 plate) or 110 uL (2 plates) of the Lysis Solution with DNase I was dispensed into each well of the Lysis Buffer Plate (twin.tec full skirt plate). The lysis buffer and stop plates were stored at 4° C. until the cells were washed.
(§6) The plate was spun at 1100 rpm for 5 minutes. The culture medium was aspirated and discarded from the wells of the culture plate. The lysis was performed automatically using a BioMek FX instrument and method. After the Biomek method was completed, the lysis plate was incubated for 2 min at room temperature. The lysis plate can be stored for 2 hours at 4° C., or at −20° C. or −80° C. for two months.
(§7) Each well of the reverse transcription plate required 10 uL of 2× reverse transcriptase Buffer, 1 uL of 20× reverse transcription enzyme and 2 uL of nuclease-free water. The reverse transcription master mix was prepared by mixing 2× reverse transcription buffer, 20× reverse transcription enzyme mix, and nuclease-free water. 13 uL of the reverse transcription master mix was dispensed into each well of the reverse transcription plate (semi-skirted). A separate reverse transcription plate was prepared for each cell plate. The plate was loaded onto a Biomek NX or Biomek FX Dual −96 and the Biomek method was run. The program is programmed to automatically added 7 uL of lysate from the cell lysis procedure described above into each well of the reverse transcription plate. The plate is sealed and spun on a centrifuge (1000 rpm for 30 seconds) to settle the contents to the bottom of the reverse transcription plate. The plate is placed in a thermocycler at 37° C. for 60 min, 95° C. for 5 min, and 4° C. until the plate is removed from the thermocycler. Upon removal, if not used immediately, the plate was frozen at −20° C.
(§8) A series of probes and primers were used to detect the various mRNA transcripts of the genes of Bach1, HMOX-1, and GAPDH in mouse and human cell lines. The assays were performed on an ABI 7900 instrument, according to the manufacturer's instructions. […] The PCR reactions were carried out at 50° C. for 2 min, 95° C. for 20 min followed by 40 cycles at 95° C. for 15 secs and 60° C. for 1 min
(§9) Within each experiment, the […] was set in the exponential phase of the amplification curve, and based on the intersection point of the baselines with the amplification curve, a Ct value was assigned by the instrument.
(§10) The expression level of the gene of interest and % knock-down was calculated using Comparative Ct method:
(§11) ΔCt=ΔCt(Target siRNA)−ΔCt(NTC)
(§12) Relative expression level=2^−ΔΔCt
(§13) The non-targeting control siNA was, unless otherwise indicated, chosen as the value against which to calculate the % knock-down, because it is the most relevant control.

Bach1 mRNA [2] = test: Initial screen: Bach1 mRNA knock-down in mouse NIH 3T3 cells (96-well transfection, quantitative RT-PCR); assay type: cell-based; details: mouse NIH3T3 cells, n = 2, 24 hrs post-transfection, protocol 10 nM siNA
Protocol: as §1, §2, §3, §4, §5, §6, §7, §8, §9, §10, §11, §12, §13

[3] = test system: cigarette smoke-induced lung destruction; details: Sussan et al (2009); cited from earlier work
[4] = test system: Heme Oxygenase-1 (HO-1) protein; test: HO-1 protein expression by Western Blot in airway epithelial cells from a COPD subject; assay type: cell-based, human; details: FIG. 13, positive controls, 18-hour treatment period
Protocol: Human airway epithelial cells were obtained by bronchoscopy from a subject with COPD (35-pack years). The cells were seeded at a density of 1×10^5 cells in a 24-well plate and incubated at 37° C. and 5% CO2 overnight. […] Whole cell lysates were created to detect Heme Oxygenase-1 (HO-1) protein expression via Western Blot.
Whole cell lysates were quantified and 5 micrograms of protein per lane were loaded into a 12.5% Tris-HCL gel. A 1:5000 dilution of Anti-Human Heme Oxygenase-1 polyclonal antibody (Assay Designs) was used to detect HO-1 protein levels. The blot was stripped and reprobed with a beta actin antibody to confirm equal loading.

Molecule | % KD (Bach1 mRNA [1]) | % KD (Bach1 mRNA [2]) [%] | lung oxidative stress markers, alveolar cell apoptosis and the subsequent lung destruction, and pulmonary hypertension [3] | HO-1 protein expression [4]
29976-DC: Bach1 siNA duplex, target site 1585 (mouse); sense B cuGcucAAGcAAcuuGGAA TTB (SEQ 101); antisense UUCcAAGuuGcuuGAGcAGUU (SEQ 102) (sense CUGCUCAAGCAACUUGGAATT; antisense UUCCAAGUUGCUUGAGCAGUU; sense: DNA at AGT, 2'-fluoro at CU, [invAb] at 5' end, 3' end, backbone not given here; antisense: sugars from the 5' end rrrfmmmffmfffmmmfmmmm, backbone not given here) | 17.5 ± 1.7% | −1.2 ± 11.6 |  | 
29977-DC: Bach1 siNA duplex, target site 1640 (mouse); sense B GAGccuuGcccGuAuGcuu TTB (SEQ 103); antisense AAGcAuAcGGGcAAGGcucUU (SEQ 104) (sense GAGCCUUGCCCGUAUGCUUTT; antisense AAGCAUACGGGCAAGGCUCUU; sense: DNA at AGT, 2'-fluoro at CU, [invAb] at 5' end, 3' end, backbone not given here; antisense: sugars from the 5' end rrrfmfmfmmmfmmmmfffmm, backbone not given here) | 18.9 ± 0.3% | 53 ± 2.9 |  | 
29978-DC: Bach1 siNA duplex, target site 403 (mouse); sense B GGuuAAAGGAuuuGAAccu TTB (SEQ 105); antisense AGGuucAAAuccuuuAAccUU (SEQ 106) (sense GGUUAAAGGAUUUGAACCUTT; antisense AGGUUCAAAUCCUUUAACCUU; sense: DNA at AGT, 2'-fluoro at CU, [invAb] at 5' end, 3' end, backbone not given here; antisense: sugars from the 5' end rrrfffmmmffffffmmffmm, backbone not given here) | 14.4 ± 0^ % | 3.3 ± 3.8 |  | 
29979-DC: Bach1 siNA duplex, target site 1523 (mouse); sense B cGGAcuuucAcAAcucucA TTB (SEQ 107); antisense UGAGAGuuGuGAAAGuccGUU (SEQ 108) (sense CGGACUUUCACAACUCUCATT; antisense UGAGAGUUGUGAAAGUCCGUU; sense: DNA at AGT, 2'-fluoro at CU, [invAb] at 5' end, 3' end, backbone not given here; antisense: sugars from the 5' end rrrmmmffmfmmmmmfffmmm, backbone not given here) | −18.1 ± 18^ % | 62.4 ± 2.6 |  | 
29980-DC: Bach1 siNA duplex, target site 1939 (mouse); sense B cGAGAAGcuGcAAAGuGAA TTB (SEQ 109); antisense UUCAcuuuGcAGcuucucGUU (SEQ 110) (sense CGAGAAGCUGCAAAGUGAATT; antisense UUCACUUUGCAGCUUCUCGUU; sense: DNA at AGT, 2'-fluoro at CU, [invAb] at 5' end, 3' end, backbone not given here; antisense: sugars from the 5' end rrrmffffmfmmffffffmmm, backbone not given here) | 91.3 ± 0.9% | 49.2 ± 1.1 |  | 
29981-DC: Bach1 siNA duplex, target site 331 (mouse); sense B cAGcuAcuuccAcucGAGA TTB (SEQ 111); antisense UCUcGAGuGGAAGuAGcuGUU (SEQ 112) (sense CAGCUACUUCCACUCGAGATT; antisense UCUCGAGUGGAAGUAGCUGUU; sense: DNA at AGT, 2'-fluoro at CU, [invAb] at 5' end, 3' end, backbone not given here; antisense: sugars from the 5' end rrrfmmmfmmmmmfmmffmmm, backbone not given here) | 1 ± 0.9% | 3.5 ± 5 |  | 
29982-DC: Bach1 siNA duplex, target site 1752 (mouse); sense B cAuucAAuGcccAAcGGAu TTB (SEQ 113); antisense AUCcGuuGGGcAuuGAAuGUU (SEQ 114) (sense CAUUCAAUGCCCAACGGAUTT; antisense AUCCGUUGGGCAUUGAAUGUU; sense: DNA at AGT, 2'-fluoro at CU, [invAb] at 5' end, 3' end, backbone not given here; antisense: sugars from the 5' end rrrfmffmmmfmffmmmfmmm, backbone not given here) | −9.2 ± 4.6% | 9 ± 8.9 |  | 
29983-DC: Bach1 siNA duplex, target site 363; sense B GAuuuGAAccuuuAAuucA TTB (SEQ 115); antisense UGAAuuAAAGGuucAAAucUU (SEQ 116) (sense GAUUUGAACCUUUAAUUCATT; antisense UGAAUUAAAGGUUCAAAUCUU; sense: DNA at AGT, 2'-fluoro at CU, [invAb] at 5' end, 3' end, backbone not given here; antisense: sugars from the 5' end rrrmffmmmmmfffmmmffmm, backbone not given here) | 74.7 ± 1.8% | 49 ± 2 |  | 
29985-DC: Bach1 siNA duplex, target site 1312; sense B AGGcuucuGGAGuGAcAuu TTB (SEQ 119); antisense AAUGucAcuccAGAAGccuUU (SEQ 120) (sense AGGCUUCUGGAGUGACAUUTT; antisense AAUGUCACUCCAGAAGCCUUU; sense: sugars from the 5' end dddfffffddddfrdfdffdd, [invAb] at 5' end, 3' end, backbone not given here; antisense: sugars from the 5' end rrrmffmffffmmmmmfffmm, backbone not given here) | 18.6 ± 6.5% | 1.3 ± 4.5 |  | 
29987-DC: Bach1 siNA duplex, target site 1313; sense B GGcuucuGGAGuGAcAuuu TTB (SEQ 123); antisense AAAuGucAcuccAGAAGccUU (SEQ 124) (sense GGCUUCUGGAGUGACAUUUTT; antisense AAAUGUCACUCCAGAAGCCUU; sense: DNA at AGT, 2'-fluoro at CU, [invAb] at 5' end, 3' end, backbone not given here; antisense: sugars from the 5' end rrrfmffmffffmmmmmffmm, backbone not given here) | 16 ± 0.2% | −16.1 ± 11.6 |  | 
CC1(C)CC[C@]2(C(=O)n3ccnc3)CC[C@]3(C)[C@H](C(=O)C=C4[C@@]5(C)C=C(C#N)C(=O)C(C)(C)[C@@H]5CC[C@]43C)[C@@H]2C1 [CDDO-Im] |  |  | significantly reduce | 
C[S+]([O-])CCCCN=C=S (centres unmarked) [Sulforaphane] |  |  |  | increased HO-1 protein expression
hemin |  |  |  | increased HO-1 protein expression
